Measured values: doi:10.1101/2024.08.13.607785v1 (biorxiv, 2024)
Like-named read-outs stand apart in the source and are kept apart here. Each block holds one compound with its values, some of them ahead of it.

Assays:
Experiment in all cases: biochemical
Set-up in all cases: species or system mixed lysate of K562, MV4-11, THP-1, NCI-H1155
[1] = target: Cyclin-dependent kinase 16 ; CDK16 ; Q00536 (Homo sapiens, UniProt Q00536)
[2] = target: Non-receptor tyrosine-protein kinase TYK2 ; TYK2 ; P29597 (Homo sapiens, UniProt P29597)
[3] = target: Cyclin-dependent kinase 7 ; CDK7 ; P50613 (Homo sapiens, UniProt P50613)
[4] = target: Cyclin-dependent kinase 6 ; CDK6 ; Q00534 (Homo sapiens, UniProt Q00534)
Sequence of Cyclin-dependent kinase 6 ; CDK6 ; Q00534 (Q00534 whole entry, one chain of several): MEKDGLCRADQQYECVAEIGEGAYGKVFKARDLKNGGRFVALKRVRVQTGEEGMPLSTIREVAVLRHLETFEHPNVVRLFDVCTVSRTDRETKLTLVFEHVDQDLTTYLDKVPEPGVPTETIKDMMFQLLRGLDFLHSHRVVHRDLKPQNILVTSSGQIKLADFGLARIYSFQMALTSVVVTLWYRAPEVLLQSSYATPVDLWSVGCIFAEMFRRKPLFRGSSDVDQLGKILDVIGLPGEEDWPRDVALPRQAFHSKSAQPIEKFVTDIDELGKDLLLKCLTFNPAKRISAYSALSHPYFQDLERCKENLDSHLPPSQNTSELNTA

[5] = target: T1, Cyclin-dependent kinase-like 5 ; CDKL5 ; O76039 (Homo sapiens, UniProt O76039)
T1 sequence (O76039 1-960): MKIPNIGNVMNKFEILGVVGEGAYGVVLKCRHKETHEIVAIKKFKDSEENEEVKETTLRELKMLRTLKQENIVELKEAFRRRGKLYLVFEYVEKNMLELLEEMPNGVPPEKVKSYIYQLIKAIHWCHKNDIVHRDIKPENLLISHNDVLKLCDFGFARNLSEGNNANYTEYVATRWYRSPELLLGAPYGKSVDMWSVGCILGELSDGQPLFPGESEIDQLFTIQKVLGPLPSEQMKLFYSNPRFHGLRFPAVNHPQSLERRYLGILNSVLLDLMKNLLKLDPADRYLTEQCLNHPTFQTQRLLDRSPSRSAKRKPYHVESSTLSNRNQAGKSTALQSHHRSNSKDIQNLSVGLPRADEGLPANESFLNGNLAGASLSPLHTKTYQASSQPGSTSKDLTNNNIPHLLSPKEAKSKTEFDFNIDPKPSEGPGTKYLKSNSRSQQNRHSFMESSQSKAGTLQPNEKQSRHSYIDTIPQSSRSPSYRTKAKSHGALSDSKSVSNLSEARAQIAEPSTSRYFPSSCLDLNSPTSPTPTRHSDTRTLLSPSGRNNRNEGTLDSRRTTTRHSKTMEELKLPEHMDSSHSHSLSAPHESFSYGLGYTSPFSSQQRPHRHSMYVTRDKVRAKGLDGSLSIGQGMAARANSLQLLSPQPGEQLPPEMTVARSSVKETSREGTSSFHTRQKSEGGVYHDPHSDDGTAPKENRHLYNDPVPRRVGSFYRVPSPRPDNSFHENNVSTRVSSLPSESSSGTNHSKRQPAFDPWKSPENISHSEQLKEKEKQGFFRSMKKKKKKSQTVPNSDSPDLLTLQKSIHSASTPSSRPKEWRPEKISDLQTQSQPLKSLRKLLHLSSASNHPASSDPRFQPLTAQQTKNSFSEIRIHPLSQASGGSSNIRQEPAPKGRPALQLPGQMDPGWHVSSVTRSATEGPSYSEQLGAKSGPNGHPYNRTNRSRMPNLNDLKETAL

[6] = target: Cyclin-dependent kinase 8 ; CDK8 ; P49336 (Homo sapiens, UniProt P49336)
Sequence of Cyclin-dependent kinase 8 ; CDK8 ; P49336 (P49336 whole entry, one chain of several): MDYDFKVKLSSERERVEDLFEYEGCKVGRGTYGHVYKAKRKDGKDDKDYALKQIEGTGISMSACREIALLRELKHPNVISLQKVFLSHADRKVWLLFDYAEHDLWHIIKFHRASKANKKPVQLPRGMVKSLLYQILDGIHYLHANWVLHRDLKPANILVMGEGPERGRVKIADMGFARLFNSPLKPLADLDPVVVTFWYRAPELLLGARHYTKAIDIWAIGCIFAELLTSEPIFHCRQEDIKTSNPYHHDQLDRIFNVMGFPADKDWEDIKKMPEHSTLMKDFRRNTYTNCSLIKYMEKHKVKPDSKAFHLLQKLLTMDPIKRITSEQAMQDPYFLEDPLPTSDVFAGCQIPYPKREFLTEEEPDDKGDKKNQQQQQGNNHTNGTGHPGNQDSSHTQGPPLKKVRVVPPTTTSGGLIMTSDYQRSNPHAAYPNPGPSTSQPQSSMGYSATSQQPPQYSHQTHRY

[7] = target: Cyclin-dependent kinase 10 ; CDK10 ; Q15131 (Homo sapiens, UniProt Q15131)
Sequence of Cyclin-dependent kinase 10 ; CDK10 ; Q15131 (Q15131 whole entry, one chain of several): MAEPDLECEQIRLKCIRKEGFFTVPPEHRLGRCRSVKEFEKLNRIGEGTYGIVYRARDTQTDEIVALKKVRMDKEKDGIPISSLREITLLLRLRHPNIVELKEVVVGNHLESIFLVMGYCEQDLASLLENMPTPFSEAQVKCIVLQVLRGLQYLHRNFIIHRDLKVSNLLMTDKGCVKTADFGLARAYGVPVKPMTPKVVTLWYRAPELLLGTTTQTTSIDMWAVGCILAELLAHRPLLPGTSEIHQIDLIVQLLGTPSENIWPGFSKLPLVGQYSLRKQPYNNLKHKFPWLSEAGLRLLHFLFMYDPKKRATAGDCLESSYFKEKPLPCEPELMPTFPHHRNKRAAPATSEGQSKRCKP

[8] = target: Cyclin-dependent kinase 2 ; CDK2 ; P24941 (Homo sapiens, UniProt P24941)
[9] = target: High affinity nerve growth factor receptor ; NTRK1 ; P04629 (Homo sapiens, UniProt P04629)
Sequence of High affinity nerve growth factor receptor ; NTRK1 ; P04629 (P04629 whole entry): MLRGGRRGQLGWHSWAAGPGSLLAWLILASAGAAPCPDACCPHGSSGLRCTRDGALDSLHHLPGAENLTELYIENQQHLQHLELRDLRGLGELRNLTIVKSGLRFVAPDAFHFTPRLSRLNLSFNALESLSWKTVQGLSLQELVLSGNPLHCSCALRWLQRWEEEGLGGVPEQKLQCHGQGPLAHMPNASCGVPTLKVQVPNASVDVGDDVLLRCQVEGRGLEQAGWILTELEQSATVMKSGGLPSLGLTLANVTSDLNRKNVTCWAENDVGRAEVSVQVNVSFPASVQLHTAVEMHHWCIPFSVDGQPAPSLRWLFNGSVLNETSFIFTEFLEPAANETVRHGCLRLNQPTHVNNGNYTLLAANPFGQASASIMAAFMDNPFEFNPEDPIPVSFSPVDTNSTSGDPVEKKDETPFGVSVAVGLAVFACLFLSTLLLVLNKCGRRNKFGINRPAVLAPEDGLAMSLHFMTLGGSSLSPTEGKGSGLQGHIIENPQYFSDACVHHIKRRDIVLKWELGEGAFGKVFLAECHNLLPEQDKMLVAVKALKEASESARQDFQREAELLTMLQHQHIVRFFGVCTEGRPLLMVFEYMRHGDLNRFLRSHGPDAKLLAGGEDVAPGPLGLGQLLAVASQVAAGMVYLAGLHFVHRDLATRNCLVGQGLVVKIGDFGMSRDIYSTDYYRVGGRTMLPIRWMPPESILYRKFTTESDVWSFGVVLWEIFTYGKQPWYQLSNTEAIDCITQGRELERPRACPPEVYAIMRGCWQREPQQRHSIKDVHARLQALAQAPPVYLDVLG

[10] = target: Cyclin-dependent kinase 12 ; CDK12 ; Q9NYV4 (Homo sapiens, UniProt Q9NYV4)
Sequence of Cyclin-dependent kinase 12 ; CDK12 ; Q9NYV4 (Q9NYV4 whole entry, one chain of several): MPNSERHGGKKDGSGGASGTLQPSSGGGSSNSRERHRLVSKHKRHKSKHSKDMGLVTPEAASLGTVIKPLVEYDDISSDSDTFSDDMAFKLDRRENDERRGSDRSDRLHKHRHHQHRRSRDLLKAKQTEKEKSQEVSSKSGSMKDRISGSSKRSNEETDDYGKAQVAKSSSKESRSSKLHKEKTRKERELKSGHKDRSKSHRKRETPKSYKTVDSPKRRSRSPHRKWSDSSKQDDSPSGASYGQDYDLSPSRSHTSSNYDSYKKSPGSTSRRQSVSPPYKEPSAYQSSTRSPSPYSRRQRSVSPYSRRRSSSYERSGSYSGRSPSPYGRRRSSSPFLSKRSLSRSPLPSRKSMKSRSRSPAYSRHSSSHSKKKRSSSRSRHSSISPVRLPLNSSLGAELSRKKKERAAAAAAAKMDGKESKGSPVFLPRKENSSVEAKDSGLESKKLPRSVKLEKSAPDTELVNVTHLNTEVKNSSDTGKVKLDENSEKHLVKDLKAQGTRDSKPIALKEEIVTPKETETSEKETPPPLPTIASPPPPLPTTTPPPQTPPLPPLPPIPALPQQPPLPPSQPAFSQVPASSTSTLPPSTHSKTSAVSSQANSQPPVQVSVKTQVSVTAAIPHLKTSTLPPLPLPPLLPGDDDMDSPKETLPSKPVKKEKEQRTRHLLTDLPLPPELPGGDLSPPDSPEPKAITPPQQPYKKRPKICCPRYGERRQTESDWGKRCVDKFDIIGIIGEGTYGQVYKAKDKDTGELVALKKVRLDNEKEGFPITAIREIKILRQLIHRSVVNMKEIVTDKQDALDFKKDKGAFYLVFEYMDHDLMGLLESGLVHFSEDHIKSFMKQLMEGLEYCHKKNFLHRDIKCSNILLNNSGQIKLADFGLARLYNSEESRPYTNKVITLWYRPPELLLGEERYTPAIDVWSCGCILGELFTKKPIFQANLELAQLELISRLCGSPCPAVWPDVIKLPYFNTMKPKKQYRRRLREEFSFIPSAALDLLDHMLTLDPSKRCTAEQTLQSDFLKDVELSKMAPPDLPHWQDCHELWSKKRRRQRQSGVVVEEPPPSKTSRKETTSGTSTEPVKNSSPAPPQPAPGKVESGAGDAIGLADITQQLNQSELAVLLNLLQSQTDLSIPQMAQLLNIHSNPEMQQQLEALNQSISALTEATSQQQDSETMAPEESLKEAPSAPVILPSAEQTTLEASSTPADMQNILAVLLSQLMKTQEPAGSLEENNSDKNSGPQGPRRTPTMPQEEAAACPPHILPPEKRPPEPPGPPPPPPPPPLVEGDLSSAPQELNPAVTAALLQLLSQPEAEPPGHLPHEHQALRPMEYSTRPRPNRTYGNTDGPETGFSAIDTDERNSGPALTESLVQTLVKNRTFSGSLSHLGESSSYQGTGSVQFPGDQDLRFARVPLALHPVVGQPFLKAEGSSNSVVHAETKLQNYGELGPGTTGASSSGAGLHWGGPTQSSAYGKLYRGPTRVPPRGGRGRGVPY

[11] = target: Cyclin-dependent kinase 13 ; CDK13 ; Q14004 (Homo sapiens, UniProt Q14004)
[12] = target: Glycogen synthase kinase-3 alpha ; GSK3A ; P49840 (Homo sapiens, UniProt P49840)
Sequence of Glycogen synthase kinase-3 alpha ; GSK3A ; P49840 (P49840 whole entry, canonical isoform): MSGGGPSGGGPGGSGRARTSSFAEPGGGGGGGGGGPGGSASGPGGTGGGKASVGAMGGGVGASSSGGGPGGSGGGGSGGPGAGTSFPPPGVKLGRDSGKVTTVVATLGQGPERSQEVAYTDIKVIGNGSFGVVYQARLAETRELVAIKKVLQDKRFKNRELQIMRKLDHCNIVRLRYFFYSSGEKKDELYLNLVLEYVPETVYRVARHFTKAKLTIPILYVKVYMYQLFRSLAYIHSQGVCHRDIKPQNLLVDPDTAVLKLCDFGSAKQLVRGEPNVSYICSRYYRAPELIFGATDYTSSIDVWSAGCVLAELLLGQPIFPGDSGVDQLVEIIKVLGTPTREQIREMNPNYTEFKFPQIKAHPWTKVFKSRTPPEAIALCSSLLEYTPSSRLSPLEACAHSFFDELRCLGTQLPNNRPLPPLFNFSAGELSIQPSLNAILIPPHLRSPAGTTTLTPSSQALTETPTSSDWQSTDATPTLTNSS

[13] = target: Isoform 2 of Cyclin-dependent kinase 17 ; CDK17 ; Q00537-2 (Homo sapiens, UniProt Q00537)
Sequence of Isoform 2 of Cyclin-dependent kinase 17 ; CDK17 ; Q00537-2 (Q00537 whole entry, canonical isoform, one chain of several): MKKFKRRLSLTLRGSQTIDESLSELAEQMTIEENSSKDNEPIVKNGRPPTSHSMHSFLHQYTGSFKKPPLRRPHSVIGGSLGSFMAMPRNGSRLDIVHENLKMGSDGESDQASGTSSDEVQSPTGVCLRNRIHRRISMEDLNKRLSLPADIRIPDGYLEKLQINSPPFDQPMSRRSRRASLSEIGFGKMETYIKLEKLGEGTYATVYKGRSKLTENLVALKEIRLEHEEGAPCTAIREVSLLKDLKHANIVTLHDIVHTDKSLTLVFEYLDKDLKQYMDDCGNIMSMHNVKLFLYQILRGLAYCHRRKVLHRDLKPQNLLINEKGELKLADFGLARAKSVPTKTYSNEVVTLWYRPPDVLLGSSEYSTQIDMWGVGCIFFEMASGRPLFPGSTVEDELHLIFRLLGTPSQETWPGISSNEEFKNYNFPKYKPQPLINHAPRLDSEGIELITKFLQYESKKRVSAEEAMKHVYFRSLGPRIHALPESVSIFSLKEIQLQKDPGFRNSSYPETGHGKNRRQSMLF

[14] = read-out: BAY-1251152 (10 µM) / %Intensity relative to DMSO
[15] = read-out: BAY-1143572 (10 µM) / %Intensity relative to DMSO

Sequence of Cyclin-dependent kinase 16 ; CDK16 ; Q00536 (Q00536 whole entry, one chain of several): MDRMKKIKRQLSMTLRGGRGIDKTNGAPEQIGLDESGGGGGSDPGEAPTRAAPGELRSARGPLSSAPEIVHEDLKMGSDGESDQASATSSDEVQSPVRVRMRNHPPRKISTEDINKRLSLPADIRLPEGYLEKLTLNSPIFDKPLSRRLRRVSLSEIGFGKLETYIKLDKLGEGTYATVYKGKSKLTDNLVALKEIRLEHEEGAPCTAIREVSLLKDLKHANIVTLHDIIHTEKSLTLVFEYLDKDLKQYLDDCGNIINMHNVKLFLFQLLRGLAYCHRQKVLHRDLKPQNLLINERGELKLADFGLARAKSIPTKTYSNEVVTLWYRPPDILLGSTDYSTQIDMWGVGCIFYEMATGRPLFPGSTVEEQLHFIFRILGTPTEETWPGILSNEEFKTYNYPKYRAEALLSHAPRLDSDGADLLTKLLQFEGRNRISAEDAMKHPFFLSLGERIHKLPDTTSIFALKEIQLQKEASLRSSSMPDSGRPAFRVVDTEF

remaining activity at 10 µM [1, 14]: 25.7% | remaining activity at 10 µM [2, 14]: 89.6% | remaining activity at 10 µM [3, 14]: 110% | remaining activity at 10 µM [4, 14]: 82.1% | remaining activity at 10 µM [5, 14]: 78.6% | remaining activity at 10 µM [6, 14]: 116% | remaining activity at 10 µM [7, 14]: 16.9% | remaining activity at 10 µM [8, 14]: 34.1% | remaining activity at 10 µM [9, 14]: 26.5% | remaining activity at 10 µM [10, 14]: 37.5% | remaining activity at 10 µM [11, 14]: 58.8% | remaining activity at 10 µM [12, 14]: 5.28% | remaining activity at 10 µM [13, 14]: 49.4%
Structure (SMILES): COc1cc(F)ccc1-c1cc(Nc2cc(CS(C)(=N)=O)ccn2)ncc1F (centres unmarked) [BAY-1251152]

remaining activity at 10 µM [1, 15]: 58.1% | remaining activity at 10 µM [2, 15]: 27.1% | remaining activity at 10 µM [3, 15]: 117% | remaining activity at 10 µM [4, 15]: 94.2% | remaining activity at 10 µM [5, 15]: 27.1% | remaining activity at 10 µM [6, 15]: 114% | remaining activity at 10 µM [7, 15]: 29.6% | remaining activity at 10 µM [8, 15]: 31.4% | remaining activity at 10 µM [9, 15]: 106% | remaining activity at 10 µM [10, 15]: 64.7% | remaining activity at 10 µM [11, 15]: 89.2% | remaining activity at 10 µM [12, 15]: 3.48% | remaining activity at 10 µM [13, 15]: 66.1%
Structure (SMILES): COc1cc(F)ccc1-c1ncnc(Nc2cccc(C[S@](C)(=N)=O)c2)n1 [BAY-1143572]
